From the supplement of paper PMC10307832

Assays:
Test in all cases: relative viability (nuclei count vs DMSO), 5 days (fraction); higher = more cells survive
[1] = compound: C[C@@H](N)c1ccc(C(=O)Nc2ccnc3[nH]ccc23)cc1 + Cc1nc(NC(=O)N2CCC[C@H]2C(N)=O)sc1-c1ccnc(C(C)(C)C(F)(F)F)c1 [Alpelisib] (partner 2 µM)
Summary of the method: (§1)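 After 5 days of treatment, lung cancer cells in 1536-well plates were fixed and stained in a single step (final 0.05% Triton X-100, 1% formaldehyde, 1 ug/ml Hoechst) and their nuclei counted on 4× images. Treatment had been applied by pin tool the day after seeding as one drug alone or as a fixed anchor-drug dose with five library-drug doses (not always all listed) in √10 steps. Relative viability is the nuclei count of treated wells divided by that of vehicle wells, and values are medians of duplicate plates.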

[2] = compound: C1CNCCC1C2=CC(=NN2)C3=CC=NC=C3 + Nc1ncn([C@H]2C[C@H](O)[C@@H](CO)O2)c(=O)n1 [Decitabine] (partner 2 µM)
Summary of the method: as §1

Tanzisertib + Lapatinib = compound: O[C@H]1CC[C@H](Nc2ncc3nc(Nc4c(F)cc(F)cc4F)n([C@H]4CCOC4)c3n2)CC1 [Tanzisertib] + CS(=O)(=O)CCNCc1ccc(-c2ccc3ncnc(Nc4ccc(OCc5cccc(F)c5)c(Cl)c4)c3c2)o1 [Lapatinib] (partner 2 µM)
Summary of the method: as §1

[3] = compound: C1CNCCC1C2=CC(=NN2)C3=CC=NC=C3 + N=C(N)NC(=N)NCCc1ccccc1 [Phenformin] (partner 250 µM)
Summary of the method: as §1

Cell Line | relative viability ([1]; first compound 0.04 µM) | relative viability ([1]; first compound 0.1265 µM) | relative viability ([1]; first compound 0.4 µM) | relative viability ([1]; first compound 1.265 µM) | relative viability ([1]; first compound 4 µM) | relative viability ([2]; first compound 0.08 µM) | relative viability ([2]; first compound 0.8 µM) | relative viability ([2]; first compound 2.53 µM) | relative viability ([2]; first compound 8 µM) | relative viability (Tanzisertib + Lapatinib; first compound 0.08 µM) | relative viability (Tanzisertib + Lapatinib; first compound 0.253 µM) | relative viability (Tanzisertib + Lapatinib; first compound 0.8 µM) | relative viability (Tanzisertib + Lapatinib; first compound 2.53 µM) | relative viability (Tanzisertib + Lapatinib; first compound 8 µM) | relative viability ([3]; first compound 0.08 µM) | relative viability ([3]; first compound 0.8 µM) | relative viability ([3]; first compound 2.53 µM) | relative viability ([3]; first compound 8 µM)
NCI-H596 | 0.556 | 0.496 | 0.508 | 0.498 | 0.409 | 1.03 | 1.25 | 0.922 | 1.21 | 1.18 | 1.15 | 1.04 | 1.09 | 0.985 | 0.657 | 0.841 | 0.927 | 0.86
RERF-LC-KJ | 0.899 | 0.939 | 0.809 | 0.945 | 0.851 | 0.692 | 0.689 | 0.766 | 0.668 | 0.872 | 0.873 | 0.884 | 0.8 | 0.892 | 0.391 | 0.429 | 0.438 | 0.406
NCI-H322M | 0.909 | 0.838 | 0.935 | – | 0.969 | 0.67 | 0.645 | 0.736 | 0.872 | 0.621 | 0.61 | 0.567 | 0.626 | 0.571 | 0.796 | 0.77 | 0.856 | 0.864
COR-L 105 | 0.876 | 1.07 | 0.918 | 0.957 | 0.65 | 0.568 | 0.729 | 0.687 | 0.772 | 0.379 | 0.355 | 0.353 | 0.332 | 0.275 | 0.541 | 0.419 | 0.508 | 0.528
NCI-H1993 | 0.693 | 0.694 | – | 0.718 | 0.685 | 0.573 | 0.576 | 0.473 | 0.7 | 0.815 | 0.846 | 0.914 | 0.777 | 0.748 | 0.497 | 0.488 | 0.547 | 0.533
NCI-H1437 | 0.899 | 0.935 | 0.945 | 0.934 | 0.764 | 0.574 | 0.573 | 0.624 | 0.602 | 0.831 | 0.859 | 0.787 | 0.824 | 0.778 | 0.34 | 0.313 | 0.298 | 0.299
NCI-H838 | 0.909 | 0.884 | 0.773 | 0.571 | 0.344 | 0.431 | 0.441 | 0.46 | 0.451 | 1.22 | 0.993 | 1.04 | 0.998 | 0.958 | 0.605 | 0.546 | 0.577 | 0.563
NCI-H1666 | 0.973 | 1.12 | 1.18 | 1.36 | 1.16 | 0.697 | 0.747 | 0.762 | 0.728 | 0.669 | 0.67 | 0.901 | 0.622 | 0.725 | 0.571 | 0.587 | 0.561 | 0.553
NCI-H1944 | 0.981 | 0.796 | 0.928 | – | 0.657 | 0.426 | 0.431 | 0.414 | 0.415 | 0.949 | 0.935 | 0.862 | 0.873 | 0.796 | 0.18 | 0.185 | 0.209 | 0.173
NCI-H2023 | 0.684 | 0.681 | 0.836 | 0.681 | 0.608 | 0.219 | 0.222 | 0.251 | 0.194 | 0.92 | 0.809 | 0.867 | 0.925 | 0.261 | 0.357 | 0.411 | 0.498 | 0.423
EBC-1 | 0.97 | 0.775 | 0.797 | 0.771 | 0.93 | – | – | – | – | 0.216 | 0.213 | 0.204 | 0.189 | 0.178 | – | – | – | –
NCI-H1755 | 0.935 | 0.899 | 0.886 | 0.856 | 0.635 | 0.712 | 0.717 | 0.692 | 0.641 | 1.06 | 0.98 | 0.995 | 1.07 | 0.968 | 0.631 | – | 0.688 | 0.553
NCI-H23 | 0.802 | 0.766 | 0.883 | – | 0.608 | 0.306 | – | 0.301 | 0.377 | 1.4 | 0.998 | 0.964 | 1.05 | 0.936 | 0.722 | 0.894 | 0.828 | 0.847
NCI-H1650 | – | – | – | – | – | 0.216 | 0.49 | 0.399 | 0.509 | 0.958 | 0.759 | 0.838 | 0.842 | 0.331 | 0.287 | 0.442 | 0.428 | 0.356
NCI-H1563 | 0.958 | 0.995 | 0.985 | 0.971 | 0.918 | – | – | – | – | 0.973 | 0.947 | 0.967 | 1.06 | 1.01 | 0.619 | 0.642 | 0.679 | 0.673
NCI-H1648 | – | – | – | – | – | 0.453 | 0.572 | – | 0.573 | – | – | – | – | – | – | – | – | –
NCI-H1299 | 1.05 | 1.04 | 0.997 | 0.894 | 0.926 | – | – | – | – | 1.01 | 0.982 | 0.989 | 1.05 | 1.11 | – | – | – | –
NCI-H1623 | – | – | – | – | – | – | – | – | – | – | – | – | – | – | 0.6 | 0.502 | 0.642 | 0.637
NCI-H1703 | 0.332 | 0.382 | 0.345 | – | 0.317 | – | – | – | – | 1.29 | 1.08 | 1.09 | 1.11 | 0.942 | – | – | – | –
NCI-H522 | – | – | – | – | – | 0.619 | 0.646 | 0.552 | 0.789 | – | – | – | – | – | 0.552 | 0.657 | 0.771 | 0.689
Calu-6 | 0.958 | 1.01 | 0.904 | 0.765 | 0.797 | – | – | – | – | 1.14 | 1.11 | 1.07 | 1.05 | 1 | – | – | – | –
ChaGo-K-1 | – | – | – | – | – | 0.496 | 0.525 | 0.506 | 0.529 | – | – | – | – | – | 0.458 | 0.527 | 0.462 | 0.462
LCLC-103H | 1.15 | 0.956 | 1.03 | 0.94 | 0.828 | 0.767 | 0.735 | 0.755 | 0.642 | – | – | – | – | – | 0.318 | 0.351 | 0.361 | 0.342
NCI-H441 | 0.715 | 0.602 | 0.641 | 0.669 | 0.919 | 0.226 | 0.255 | 0.243 | 0.248 | – | – | – | – | – | 0.634 | 0.947 | 0.831 | 0.753
